Patent publication US8492540B2, “1,2,4,-triazin-3,5-dione compounds suitable for treating disorders that respond to modulation of the dopamine D3 receptor” (Abbott GmbH & Co. KG, priority 2007, dated 2013)

Experiments:
[1] = biological target: T1, human dopamine D3 receptors (Homo sapiens, UniProt P35462); test: Dopamine D3 receptor binding, [125I]-iodosulpride displacement; details: membranes of HEK-293 cells, 0.1 nM [125I]-iodosulpride
T1 construct: expressed in transfected cells; membranes)
Procedure: (§1) Each as-say mixture was run in triplicate. • The incubation buffer contained 50 mM tris, 120 mM NaCl, 5 mM KCl, 2 mM CaCl2, 2 mM MgCl2 and 0.1% bovine serum albumin, 10 μM quinolone and 0.1% ascorbic acid (prepared fresh daily). […] Each assay mixture was run in triplicate. • The incubation buffer contained 50 mM tris, 120 mM NaCl, 5 mM KCl, 2 mM CaCl2, 2 mM MgCl2 and 0.1% bovine serum albumin. The buffer was adjusted to pH 7.4 with HCl. c) Measurement and Analysis: • After having been incubated at 25° C. for 60 minutes, the assay mixtures were filtered through a Whatman GF/B glass fiber filter under vacuum using a cell collecting device. The filters were transferred to scintillation viols using a filter transfer system. After 4 ml of Ultima Gold® (Packard) have been added, the samples were shaken for one hour and the radioactivity was then counted in a Beta-Counter (Packard, Tricarb 2000 or 2200CA).

[2] = biological target: T2, human dopamine D2L receptors (long isoform) (Homo sapiens, UniProt P14416); test: Dopamine D2L receptor binding, [125I] iodospiperone displacement; details: ratio of Ki at human D2L to Ki at human D3, HEK-293 membranes
T2 construct: expressed in transfected cells; membranes)
T2 sequence (P14416 whole entry, canonical isoform): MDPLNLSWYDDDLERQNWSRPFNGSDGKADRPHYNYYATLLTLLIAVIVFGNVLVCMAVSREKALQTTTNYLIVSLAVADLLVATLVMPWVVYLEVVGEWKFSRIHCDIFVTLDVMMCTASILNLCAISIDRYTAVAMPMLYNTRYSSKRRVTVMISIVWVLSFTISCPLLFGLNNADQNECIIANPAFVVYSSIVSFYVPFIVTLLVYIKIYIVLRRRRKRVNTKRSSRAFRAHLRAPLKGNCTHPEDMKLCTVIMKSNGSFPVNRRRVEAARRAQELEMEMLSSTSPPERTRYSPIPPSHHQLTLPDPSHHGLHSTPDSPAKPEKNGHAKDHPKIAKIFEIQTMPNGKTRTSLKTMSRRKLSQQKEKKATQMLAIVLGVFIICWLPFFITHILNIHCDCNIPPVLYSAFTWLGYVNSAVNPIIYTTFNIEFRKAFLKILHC
Procedure: as §1

T1 sequence (P35462 whole entry): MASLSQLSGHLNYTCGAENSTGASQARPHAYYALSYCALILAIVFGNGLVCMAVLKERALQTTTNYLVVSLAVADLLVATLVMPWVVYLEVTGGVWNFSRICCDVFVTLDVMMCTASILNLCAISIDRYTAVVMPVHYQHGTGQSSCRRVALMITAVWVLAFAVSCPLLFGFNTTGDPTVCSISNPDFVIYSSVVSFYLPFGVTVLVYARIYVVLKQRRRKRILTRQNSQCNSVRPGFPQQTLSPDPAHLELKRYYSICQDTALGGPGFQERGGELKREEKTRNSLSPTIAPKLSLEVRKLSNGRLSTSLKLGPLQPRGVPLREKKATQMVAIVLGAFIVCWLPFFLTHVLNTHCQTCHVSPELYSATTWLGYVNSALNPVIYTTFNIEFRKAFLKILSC

Ki [1] [nM] | Selectivity vs. D2L, Ki(D2L)/Ki(D3) [2] | Compound
< 10 | ++ (++>20) | Cc1nn(CCCCN2CCN(c3cc(C(F)(F)F)nc(C(C)(C)C)n3)CC2)c(=O)[nH]c1=O.Cl [Example 6, 2-{4-[4-(2-tert-Butyl-6-trifluoromethyl-pyrimidin-4-yl)-piperazin-1-yl]butyl}-6-methyl-2H-[1,2,4]triazine-3,5-dione hydrochloride]
< 10 | ++ (++>20) | CCCc1cc(N2CCN(CCCCn3nc(C)c(=O)[nH]c3=O)CC2)nc(C(C)(C)C)n1.Cl [Example 7, 2-{4-[4-(2-tert-Butyl-6-propyl-pyrimidin-4-yl)-piperazin-1-yl]butyl}-6-methyl-2H-[1,2,4]triazine-3,5-dione hydrochloride]
< 10 | ++ (++>20) | CC(C)(C)c1nc(N2CCN(CCCCn3ncc(=O)[nH]c3=O)CC2)cc(C(F)(F)F)n1.Cl [Example 1, 2-{4-[4-(2-tert-Butyl-6-trifluoromethyl-pyrimidin-4-yl)-piperazin-1-yl]butyl}-2H-[1,2,4]triazine-3,5-dione hydrochloride]
< 10 | ++ (++>20) | CC(C)(C)c1nc(C2CCC2)cc(N2CCN(CCCCn3ncc(=O)[nH]c3=O)CC2)n1 [Example 5, 2-{4-[4-(2-tert-Butyl-6-cyclobutyl-pyrimidin-4-yl)-piperazin-1-yl]butyl}-2H-[1,2,4]triazine-3,5-dione]
< 10 | ++ (++>20) | CC(C)(C)c1cc(N2CCN(CCCCn3ncc(=O)[nH]c3=O)CC2)nc(C(C)(C)C)n1.O=C(O)C(F)(F)F [Example 4, 2-{4-[4-(2,6-Di-tert-butyl-pyrimidin-4-yl)-piperazin-1-yl]butyl}-2H-[1,2,4]triazine-3,5-dione trifluoroacetate]
< 10 | +++ (+++>50) | CCCc1cc(N2CCN(CCCCn3ncc(=O)[nH]c3=O)CC2)nc(C(C)(C)C)n1 [Example 3, 2-{4-[4-(2-tert-Butyl-6-propyl-pyrimidin-4-yl)-piperazin-1-yl]butyl}-2H-[1,2,4]triazine-3,5-dione]
< 10 | ++ (++>20) | CC(C)(C)c1nc(C(F)F)cc(N2CCN(CCCCn3ncc(=O)[nH]c3=O)CC2)n1.Cl [Example 2, 2-{4-[4-(2-tert-Butyl-6-difluoromethyl-pyrimidin-4-yl)-piperazin-1-yl]butyl}-2H-[1,2,4]triazine-3,5-dione hydrochloride]
